In patent publication US10793536B2, “Vortioxetine pamoic acid salt and crystal form thereof” (SHANGHAI SYNERGY PHARMACEUTICAL SCIENCES CO., LTD, priority 2016, dated 2020):
Read-outs that look alike come from different tables or passages of the source.

How the values were obtained:
[1] = Wistar rat, single intramuscular injection 45.6 mg/kg; for AUC(0-t), Mean / AUC(0-∞), Mean / Cmax, Mean / MRT(0-∞), Mean / Tmax, Mean / t1/2z, Mean: non-compartment model
Procedure: Weighing 75.1 mg of each of crystal forms A, B and D of vortioxetine semi pamoic acid, adding 1 mL diluent (water for Injection containing 1% CMC-Na and 5% mannitol) to each of them, and whirling for 2 min to obtain 3 suspensions (pH˜7) of 3 crystal forms with a concentration of 45.6 mg/mL.
Drugs are administered to 9 male clean Wistar rats (Shanghai Sippr BK Laboratory Animals Ltd) with a weight range of 183.0˜186.3 g in accordance with Table 4.
Collecting blood samples by jugular puncture, about 0.2 mL for each sample, resisting against blood coagulation using heparin sodium, placing the collected blood samples on ice, wherein the blood collecting time is as follows: 30 min, 1 hrs, 2 hrs, 4 hrs, 8 hrs, 24 hrs, 48 hrs, 72 hrs, 120 hrs, 168 hrs, 216 hrs, 264 hrs, 312 hrs, 360 hrs, 504 hrs, and 672 hrs […] after administration of drug; placing the collected blood samples on ice, and separating the blood plasma centrifugally (centrifugal condition: 8,000 revolutions/min, 6 minutes, 2-8° C.); storing the collected blood plasma at −70° C. before analysis.
Separately calculating the pharmacokinetic parameters AUC0-t, AUC0-∞, MRT0-∞, Cmax, Tmax, T1/2 etc. of the tested samples using a non-compartment model for pharmacokinetic calculation software WinNonlin5.2 according to the blood concentration data of the drug. For samples with a concentration lower than the quantitative lower limit, when the pharmacokinetic parameters are calculated, the samples sampled before reaching Cmax should be calculated at zero value; after reaching Cmax, the samples at the sample point should be calculated by “below the limit of quantitation” (BLQ).

[2] = single dose of vortioxetine injected to the body of the rat; FDA pharmacological summary document No. 204447Orig 1s000; cited from earlier work

SMILES: Cc1ccc(Sc2ccccc2N2CCNCC2)c(C)c1.Cc1ccc(Sc2ccccc2N2CCNCC2)c(C)c1.O=C(O)c1cc2ccccc2c(Cc2c(O)c(C(=O)O)cc3ccccc23)c1O [Crystal form A of vortioxetine semi pamoic acid salt] [Crystal Form a Vortioxetine Semi Pamoic Acid Salt]
- Concentration of vortioxetine in plasma, Mean ([1]; blood sampling time 0.5 h): 3.12 ng/mL
- Concentration of vortioxetine in plasma, Mean ([1]; blood sampling time 1 h): 5.80 ng/mL
- Concentration of vortioxetine in plasma, Mean ([1]; blood sampling time 2 h): 8.41 ng/mL
- Concentration of vortioxetine in plasma, Mean ([1]; blood sampling time 4 h): 10.75 ng/mL
- Concentration of vortioxetine in plasma, Mean ([1]; blood sampling time 8 h): 16.22 ng/mL
- Concentration of vortioxetine in plasma, Mean ([1]; blood sampling time 24 h): 15.77 ng/mL
- Concentration of vortioxetine in plasma, Mean ([1]; blood sampling time 48 h): 8.70 ng/mL
- Concentration of vortioxetine in plasma, Mean ([1]; blood sampling time 72 h): 11.68 ng/mL
- Concentration of vortioxetine in plasma, Mean ([1]; blood sampling time 120 h): 35.38 ng/mL
- Concentration of vortioxetine in plasma, Mean ([1]; blood sampling time 168 h): 31.34 ng/mL
- Concentration of vortioxetine in plasma, Mean ([1]; blood sampling time 216 h): 13.35 ng/mL
- Concentration of vortioxetine in plasma, Mean ([1]; blood sampling time 264 h): 6.29 ng/mL
- Concentration of vortioxetine in plasma, Mean ([1]; blood sampling time 312 h): 4.07 ng/mL
- Concentration of vortioxetine in plasma, Mean ([1]; blood sampling time 360 h): 2.26 ng/mL
- Concentration of vortioxetine in plasma, Mean ([1]; blood sampling time 504 h): 1.73 ng/mL
- Concentration of vortioxetine in plasma, Mean ([1]; blood sampling time 672 h): 1.88 ng/mL
- AUC(0-t), Mean [1]: 6143.08 ng·h/mL
- AUC(0-∞), Mean [1]: 6503.21 ng·h/mL
- Cmax, Mean [1]: 38.18 ng/mL
- MRT(0-∞), Mean [1]: 227.18 h
- Tmax, Mean [1]: 136.00 h
- t1/2z, Mean [1]: 126.06 h

SMILES: Cc1ccc(Sc2ccccc2N2CCNCC2)c(C)c1 [vortioxetine, 1-[2-(2,4-dimethylphenylthiorueaalkyl)phenyl] piperazine]
- half-life period t1/2 [2]: more than two hours

SMILES: Cc1ccc(Sc2ccccc2N2CCNCC2)c(C)c1.Cc1ccc(Sc2ccccc2N2CCNCC2)c(C)c1.O=C(O)c1cc2ccccc2c(Cc2c(O)c(C(=O)O)cc3ccccc23)c1O [Crystal form D of vortioxetine semi pamoic acid salt] [Crystal Form D Vortioxetine Semi Pamoic Acid Salt]
- Concentration of vortioxetine in plasma, Mean ([1]; blood sampling time 0.5 h): 4.34 ng/mL
- Concentration of vortioxetine in plasma, Mean ([1]; blood sampling time 1 h): 8.10 ng/mL
- Concentration of vortioxetine in plasma, Mean ([1]; blood sampling time 2 h): 11.59 ng/mL
- Concentration of vortioxetine in plasma, Mean ([1]; blood sampling time 4 h): 15.37 ng/mL
- Concentration of vortioxetine in plasma, Mean ([1]; blood sampling time 8 h): 23.28 ng/mL
- Concentration of vortioxetine in plasma, Mean ([1]; blood sampling time 24 h): 24.08 ng/mL
- Concentration of vortioxetine in plasma, Mean ([1]; blood sampling time 48 h): 14.11 ng/mL
- Concentration of vortioxetine in plasma, Mean ([1]; blood sampling time 72 h): 19.52 ng/mL
- Concentration of vortioxetine in plasma, Mean ([1]; blood sampling time 120 h): 41.99 ng/mL
- Concentration of vortioxetine in plasma, Mean ([1]; blood sampling time 168 h): 46.20 ng/mL
- Concentration of vortioxetine in plasma, Mean ([1]; blood sampling time 216 h): 16.02 ng/mL
- Concentration of vortioxetine in plasma, Mean ([1]; blood sampling time 264 h): 5.66 ng/mL
- Concentration of vortioxetine in plasma, Mean ([1]; blood sampling time 312 h): 3.66 ng/mL
- Concentration of vortioxetine in plasma, Mean ([1]; blood sampling time 360 h): 2.03 ng/mL
- Concentration of vortioxetine in plasma, Mean ([1]; blood sampling time 504 h): 1.56 ng/mL
- Concentration of vortioxetine in plasma, Mean ([1]; blood sampling time 672 h): 1.69 ng/mL
- AUC(0-t), Mean [1]: 7856.57 ng·h/mL
- AUC(0-∞), Mean [1]: 8392.02 ng·h/mL
- Cmax, Mean [1]: 48.65 ng/mL
- MRT(0-∞), Mean [1]: 162.48 h
- Tmax, Mean [1]: 152.00 h
- t1/2z, Mean [1]: 228.84 h

SMILES: Cc1ccc(Sc2ccccc2N2CCNCC2)c(C)c1.Cc1ccc(Sc2ccccc2N2CCNCC2)c(C)c1.O=C(O)c1cc2ccccc2c(Cc2c(O)c(C(=O)O)cc3ccccc23)c1O [Crystal form B of vortioxetine semi pamoic acid salt] [Crystal Form B Vortioxetine Semi Pamoic Acid Salt]
- Concentration of vortioxetine in plasma, Mean ([1]; blood sampling time 0.5 h): 2.14 ng/mL
- Concentration of vortioxetine in plasma, Mean ([1]; blood sampling time 1 h): 4.56 ng/mL
- Concentration of vortioxetine in plasma, Mean ([1]; blood sampling time 2 h): 10.17 ng/mL
- Concentration of vortioxetine in plasma, Mean ([1]; blood sampling time 4 h): 18.05 ng/mL
- Concentration of vortioxetine in plasma, Mean ([1]; blood sampling time 8 h): 21.12 ng/mL
- Concentration of vortioxetine in plasma, Mean ([1]; blood sampling time 24 h): 17.67 ng/mL
- Concentration of vortioxetine in plasma, Mean ([1]; blood sampling time 48 h): 14.56 ng/mL
- Concentration of vortioxetine in plasma, Mean ([1]; blood sampling time 72 h): 15.65 ng/mL
- Concentration of vortioxetine in plasma, Mean ([1]; blood sampling time 120 h): 32.47 ng/mL
- Concentration of vortioxetine in plasma, Mean ([1]; blood sampling time 168 h): 40.21 ng/mL
- Concentration of vortioxetine in plasma, Mean ([1]; blood sampling time 216 h): 24.00 ng/mL
- Concentration of vortioxetine in plasma, Mean ([1]; blood sampling time 264 h): 15.19 ng/mL
- Concentration of vortioxetine in plasma, Mean ([1]; blood sampling time 312 h): 10.55 ng/mL
- Concentration of vortioxetine in plasma, Mean ([1]; blood sampling time 360 h): 6.02 ng/mL
- Concentration of vortioxetine in plasma, Mean ([1]; blood sampling time 504 h): 2.62 ng/mL
- Concentration of vortioxetine in plasma, Mean ([1]; blood sampling time 672 h): 2.06 ng/mL
- AUC(0-t), Mean [1]: 8588.42 ng·h/mL
- AUC(0-∞), Mean [1]: 8939.49 ng·h/mL
- Cmax, Mean [1]: 40.21 ng/mL
- MRT(0-∞), Mean [1]: 226.30 h
- Tmax, Mean [1]: 168 h
- t1/2z, Mean [1]: 116.6 h
